Data reported in ChEMBL document CHEMBL2163318, “Phenylalanine derivatives as GPR142 agonists for the treatment of type II diabetes” (Bioorg Med Chem Lett, 2012).
Calls of active or inactive are those of the source. The calls are words filed in the database; no cut-off is given here.

Columns and labels:
[1] = test system: Mus musculus; assay: Antidiabetic activity in B6D2F1 Harlan mouse assessed as increase in serum insulin level at 0.10 mg/kg, sc administered 15 mins prior glucose challenge measured 7.5 mins post glucose challenge by ELISA; format: functional, organism-based; set-up: dose 0.1 mg/kg
[2] = test system: Mus musculus; assay: Antidiabetic activity in B6D2F1 Harlan mouse assessed as increase in serum insulin level at 0.30 mg/kg, sc administered 15 mins prior glucose challenge measured 7.5 mins post glucose challenge by ELISA; format: functional; conditions: dose 0.3 mg/kg; route subcutaneous
[3] = test system: Mus musculus; assay: Antidiabetic activity in B6D2F1 Harlan mouse assessed as increase in serum insulin level at 1 mg/kg, sc administered 15 mins prior glucose challenge measured 7.5 mins post glucose challenge by ELISA; format: functional; conditions: route subcutaneous
[4] = test system: Mus musculus; assay: Antidiabetic activity in B6D2F1 Harlan mouse assessed as increase in serum insulin level at 3 mg/kg, sc administered 15 mins prior glucose challenge measured 7.5 mins post glucose challenge by ELISA; format: functional; conditions: route subcutaneous
[5] = test system: Mus musculus; assay: Antidiabetic activity in B6D2F1 Harlan mouse assessed as increase in serum insulin level at 5 mg/kg, sc administered 15 mins prior glucose challenge measured 7.5 mins post glucose challenge by ELISA; format: functional; conditions: route subcutaneous
[6] = test system: Mus musculus; assay: Antidiabetic activity in B6D2F1 Harlan mouse assessed as increase in serum insulin level at 30 mg/kg, sc administered 15 mins prior glucose challenge measured 7.5 mins post glucose challenge by ELISA; format: functional; conditions: route subcutaneous
[7] = Clearance in rat at 0.89 mg/kg, iv; format: ADME, organism-based; set-up: dose 0.89 mg/kg, route intravenous; conditions: in vivo
[8] = AUC in rat at 0.89 mg/kg, iv; format: ADME, organism-based; set-up: dose 0.89 mg/kg, route intravenous; conditions: plasma
[9] = Volume of distribution at steady state in rat at 0.89 mg/kg, iv; format: ADME, organism-based; set-up: dose 0.89 mg/kg, route intravenous; conditions: in vivo, read-out: Vdss
[10] = Half life in rat at 0.89 mg/kg, iv; format: ADME, organism-based; set-up: dose 0.89 mg/kg, route intravenous; conditions: in vivo
[11] = AUC in rat at 2 mg/kg, po; format: ADME, organism-based; set-up: dose 2 mg/kg, route oral; conditions: plasma
[12] = Mean residence time in rat at 2 mg/kg, po; format: ADME, organism-based; set-up: dose 2 mg/kg, route oral; conditions: in vivo
[13] = Oral bioavailability in rat at 2 mg/kg; format: ADME, organism-based; conditions: in vivo
[14] = target: T1, Probable G-protein coupled receptor 142 (Mus musculus) (UniProt Q7TQN9); assay: Agonist activity at mouse GPR142 expressed in HEK293 cells by inositol phosphate accumulation assay relative to control; format: functional, cell-based
T1 sequence (whole entry): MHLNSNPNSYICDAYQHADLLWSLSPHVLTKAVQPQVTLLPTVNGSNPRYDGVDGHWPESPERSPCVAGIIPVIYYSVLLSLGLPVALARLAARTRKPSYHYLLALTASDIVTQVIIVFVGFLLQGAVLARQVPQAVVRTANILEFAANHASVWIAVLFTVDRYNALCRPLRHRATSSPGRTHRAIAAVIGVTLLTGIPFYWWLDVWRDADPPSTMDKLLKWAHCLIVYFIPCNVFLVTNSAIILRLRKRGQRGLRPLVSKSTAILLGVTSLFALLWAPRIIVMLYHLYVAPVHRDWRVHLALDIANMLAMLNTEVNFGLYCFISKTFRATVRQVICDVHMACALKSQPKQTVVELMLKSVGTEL

[15] = Metabolic stability of rat microsomes assessed as compound turnover at 1 uM after 30 mins by LC-MS analysis; format: ADME, Microsome; conditions: read-out: Drug metabolism
[16] = Metabolic stability of human microsomes assessed as compound turnover at 1 uM after 30 mins by LC-MS analysis; format: ADME, Microsome; conditions: read-out: Drug metabolism
[17] = target: T2, Probable G-protein coupled receptor 142 (Homo sapiens) (UniProt Q7Z601); assay: Agonist activity at human GPR142 expressed in HEK293 cells assessed as inositol phosphate accumulation at 10 uM after 1 hr by scintillation counting; format: functional, cell-based
T2 sequence (whole entry): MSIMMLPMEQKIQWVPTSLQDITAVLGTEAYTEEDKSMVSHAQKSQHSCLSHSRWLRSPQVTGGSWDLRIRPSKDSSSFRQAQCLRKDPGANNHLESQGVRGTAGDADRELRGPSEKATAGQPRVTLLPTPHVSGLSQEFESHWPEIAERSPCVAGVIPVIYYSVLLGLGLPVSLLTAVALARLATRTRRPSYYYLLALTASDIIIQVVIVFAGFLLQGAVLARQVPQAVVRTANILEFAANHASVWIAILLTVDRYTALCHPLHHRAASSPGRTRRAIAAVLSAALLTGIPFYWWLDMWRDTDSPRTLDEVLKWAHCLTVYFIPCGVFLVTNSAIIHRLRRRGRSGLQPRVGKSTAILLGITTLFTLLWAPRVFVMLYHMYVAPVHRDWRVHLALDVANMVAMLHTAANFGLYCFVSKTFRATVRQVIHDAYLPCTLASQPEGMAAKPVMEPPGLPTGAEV

[18] = target: T3, Probable G-protein coupled receptor 142 (Homo sapiens, UniProt Q7Z601); assay: Agonist activity at human GPR142 expressed in HEK293 cells assessed as inositol phosphate accumulation after 1 hr by scintillation counting; format: functional, cell-based
T3 sequence (Q7Z601 whole entry): T2 sequence (whole entry)

[19] = target: T4, Probable G-protein coupled receptor 142 (Mus musculus, UniProt Q7TQN9); assay: Agonist activity at mouse GPR142 expressed in HEK293 cells by inositol phosphate accumulation assay; format: functional, cell-based
T4 sequence (Q7TQN9 whole entry): T1 sequence (whole entry)

[20] = test system: Mus musculus; assay: Antidiabetic activity in sc dosed B6D2F1 Harlan mouse assessed as decrease in blood glucose level administered 15 mins prior glucose challenge measured 7.5 mins post glucose challenge by glucometer analysis; format: functional, organism-based
[21] = test system: Mus musculus; assay: Antidiabetic activity in sc dosed B6D2F1 Harlan mouse assessed as increase in serum insulin level administered 15 mins prior glucose challenge measured 7.5 mins post glucose challenge by ELISA; format: functional, organism-based
[22] = test system: Mus musculus; assay: Antidiabetic activity in B6D2F1 Harlan mouse assessed as decrease in blood glucose level at 0.10 mg/kg, sc administered 15 mins prior glucose challenge measured 7.5 mins post glucose challenge by glucometer analysis; format: functional, organism-based; set-up: dose 0.1 mg/kg
[23] = test system: Mus musculus; assay: Antidiabetic activity in B6D2F1 Harlan mouse assessed as decrease in blood glucose level at 0.30 mg/kg, sc administered 15 mins prior glucose challenge measured 7.5 mins post glucose challenge by glucometer analysis; format: functional; set-up: scale not given: the % may be the effect or the level left; conditions: dose 0.3 mg/kg; route subcutaneous
[24] = test system: Mus musculus; assay: Antidiabetic activity in B6D2F1 Harlan mouse assessed as decrease in blood glucose level at 1 mg/kg, sc administered 15 mins prior glucose challenge measured 7.5 mins post glucose challenge by glucometer analysis; format: functional; set-up: scale not given: the % may be the effect or the level left; conditions: route subcutaneous
[25] = test system: Mus musculus; assay: Antidiabetic activity in B6D2F1 Harlan mouse assessed as decrease in blood glucose level at 3 mg/kg, sc administered 15 mins prior glucose challenge measured 7.5 mins post glucose challenge by glucometer analysis; format: functional; set-up: scale not given: the % may be the effect or the level left; conditions: route subcutaneous
[26] = test system: Mus musculus; assay: Antidiabetic activity in B6D2F1 Harlan mouse assessed as decrease in blood glucose level at 5 mg/kg, sc administered 15 mins prior glucose challenge measured 7.5 mins post glucose challenge by glucometer analysis; format: functional; set-up: scale not given: the % may be the effect or the level left; conditions: route subcutaneous
[27] = test system: Mus musculus; assay: Antidiabetic activity in B6D2F1 Harlan mouse assessed as decrease in blood glucose level at 30 mg/kg, sc administered 15 mins prior glucose challenge measured 7.5 mins post glucose challenge by glucometer analysis; format: functional; set-up: scale not given: the % may be the effect or the level left; conditions: route subcutaneous

clearance [7]: 83.3 mL/min/kg
AUC [8]: 177 ng·h/mL
Vd [9]: 1.1 L/kg
half-life [10]: 12 min
AUC [11]: 77 ng·h/mL
MRT [12]: 107 min
bioavailability [13]: 20%
Emax [14]: 81%
metabolised at 0.5 h, 1 µM [15]: 60%
metabolised at 0.5 h, 1 µM [16]: < 10%
Emax [17]: 127%
EC50 [18]: 54 nM
EC50 [19]: 1.8 nM
EC50 [20]: 850 nM
EC50 [21]: 290 nM
Structure (SMILES): O=C(Nc1cc(-c2ccncc2)c[nH]c1=O)[C@H](Cc1ccccc1)NC1(c2ccccn2)CC1
Activity [1]: inactive
Activity [2]: 15%
Activity [3]: 41%
Activity [4]: 58%
Activity [5]: 81%
Activity [6]: 98%
Activity [20]: Dose-dependent effect
Activity [21]: Dose-dependent effect
Activity [22]: inactive
Activity [23]: 0%
Activity [24]: 3%
Activity [25]: 4%
Activity [26]: 15%
Activity [27]: 13%
